Results taken from US20230174485A1, “LIPOXYGENASE INHIBITORS” (SRI International, priority 2020, published 2023).
“And” between values parts separate entries of the source, which are not always exact repeats. Equal values may be shown once. Where a name gives a salt, the structure may show the parent alone. Read-outs that look alike come from different tables or passages of the source.

Columns and labels:
Format in all cases: biochemical
[1] = biological target: T1, recombinant 12-LOX enzyme (Homo sapiens, UniProt P18054); test: 12-LOX fluorescent assay; details: several values in one cell = repeat determinations
T1 sequence (P18054 1-663): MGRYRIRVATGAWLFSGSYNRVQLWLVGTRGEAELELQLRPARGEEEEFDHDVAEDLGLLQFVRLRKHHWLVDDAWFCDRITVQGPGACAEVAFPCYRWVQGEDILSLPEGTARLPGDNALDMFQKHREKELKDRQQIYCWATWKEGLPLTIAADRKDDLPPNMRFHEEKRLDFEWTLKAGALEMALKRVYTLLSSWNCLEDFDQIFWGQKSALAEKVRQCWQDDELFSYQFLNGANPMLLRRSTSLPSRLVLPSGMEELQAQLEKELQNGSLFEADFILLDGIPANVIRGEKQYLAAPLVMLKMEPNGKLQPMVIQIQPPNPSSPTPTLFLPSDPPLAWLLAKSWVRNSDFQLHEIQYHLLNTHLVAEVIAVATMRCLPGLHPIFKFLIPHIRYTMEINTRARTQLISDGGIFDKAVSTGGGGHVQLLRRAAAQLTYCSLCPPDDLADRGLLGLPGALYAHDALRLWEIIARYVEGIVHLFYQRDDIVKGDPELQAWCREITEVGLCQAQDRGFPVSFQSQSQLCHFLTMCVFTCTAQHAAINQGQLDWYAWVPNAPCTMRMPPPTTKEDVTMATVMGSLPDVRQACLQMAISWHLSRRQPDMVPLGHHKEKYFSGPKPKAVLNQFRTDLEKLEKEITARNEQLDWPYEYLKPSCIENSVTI
Method: (§1) 12-LOX/15-LOX Fluorescent Assay
(§2) The enzyme assay (100 ul) contained 50 mM Tris, pH 7.5, 0.05% Tween-20, 20 μM AA/LA, 1 μM DHR123, and 100 nM recombinant 12-LOX enzyme/50 nM recombinant 15-LOX enzyme. Inhibitors (dissolved in DMSO) were plated at 1 μL into 96-well assay microplates followed by a 40 μL addition of a solution containing 12-LOX/15-LOX enzyme. Enzyme was pre-incubated with compounds for 15 mins. The assay was initiated by the addition of a 40 μL substrate solution containing AA/LA, and 20 μL addition of a solution containing DHR123. Enzymatic reaction proceeded for 30 min with kinetic reading at 500 nm excitation & 536 nm emission in SpectraMax Paradigm (MolecularDevice). Percent inhibition was calculated for each compound dose for IC50 curve fitting using 4 Parameter Logistic Model or Sigmoidal Dose-Response Model.

[2] = biological target: T2, recombinant 5-LOX (Homo sapiens, UniProt P09917); test: 5-LOX fluorescent assay; details: several values in one cell = repeat determinations; read-out: IC50 (μM) values for in vitro lipoxygenase inhibition, 5-LOX
T2 sequence (P09917 1-674): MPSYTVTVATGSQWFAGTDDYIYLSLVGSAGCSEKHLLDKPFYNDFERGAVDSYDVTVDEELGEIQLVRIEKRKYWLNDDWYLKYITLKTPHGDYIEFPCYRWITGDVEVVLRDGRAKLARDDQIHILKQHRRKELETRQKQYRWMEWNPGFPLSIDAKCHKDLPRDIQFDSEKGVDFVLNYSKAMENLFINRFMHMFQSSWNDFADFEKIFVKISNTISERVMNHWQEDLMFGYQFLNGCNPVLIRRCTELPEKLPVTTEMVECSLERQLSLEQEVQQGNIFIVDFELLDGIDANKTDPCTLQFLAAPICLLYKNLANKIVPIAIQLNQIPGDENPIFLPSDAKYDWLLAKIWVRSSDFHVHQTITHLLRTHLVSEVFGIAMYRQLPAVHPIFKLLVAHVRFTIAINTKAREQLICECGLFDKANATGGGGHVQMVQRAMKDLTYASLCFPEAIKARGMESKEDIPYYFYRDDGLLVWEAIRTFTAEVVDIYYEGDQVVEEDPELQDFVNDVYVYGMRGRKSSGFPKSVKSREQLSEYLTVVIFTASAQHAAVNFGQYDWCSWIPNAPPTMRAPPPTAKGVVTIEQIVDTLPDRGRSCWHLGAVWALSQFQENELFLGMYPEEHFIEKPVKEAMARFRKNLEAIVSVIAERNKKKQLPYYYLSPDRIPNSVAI
Method: 5-LOX FI assay Fluorescent Assay
The enzyme assay (100 μL) contained 50 mM Tris, pH 7.5, 0.1 mM EDTA, 0.3 mM CaCl2, 20 μM AA, 100 μM ATP, 1 μM DHR123, and recombinant 5-LOX cell lysate (0.5 μL/100 μL). Inhibitors (dissolved in DMSO) were plated at 1 μL into 96-well assay microplates followed by a 40 μL addition of a solution containing 5-LOX enzyme. Enzyme was pre-incubated with compounds for 15 mins. The assay was initiated by the addition of a 40 μL substrate solution containing AA and ATP, and 20 μL addition of a solution containing DHR123. Enzymatic reaction proceeded for 30 min with kinetic reading at 500 nm excitation & 536 nm emission in SpectraMax Paradigm (MolecularDevice). Percent inhibition was calculated for each compound dose for IC50 curve fitting using 4 Parameter Logistic Model or Sigmoidal Dose-Response Model.

[3] = biological target: T3, recombinant 15-LOX enzyme (Homo sapiens, UniProt P16050); test: 15-LOX fluorescent assay; details: several values in one cell = repeat determinations
T3 sequence (P16050 1-662): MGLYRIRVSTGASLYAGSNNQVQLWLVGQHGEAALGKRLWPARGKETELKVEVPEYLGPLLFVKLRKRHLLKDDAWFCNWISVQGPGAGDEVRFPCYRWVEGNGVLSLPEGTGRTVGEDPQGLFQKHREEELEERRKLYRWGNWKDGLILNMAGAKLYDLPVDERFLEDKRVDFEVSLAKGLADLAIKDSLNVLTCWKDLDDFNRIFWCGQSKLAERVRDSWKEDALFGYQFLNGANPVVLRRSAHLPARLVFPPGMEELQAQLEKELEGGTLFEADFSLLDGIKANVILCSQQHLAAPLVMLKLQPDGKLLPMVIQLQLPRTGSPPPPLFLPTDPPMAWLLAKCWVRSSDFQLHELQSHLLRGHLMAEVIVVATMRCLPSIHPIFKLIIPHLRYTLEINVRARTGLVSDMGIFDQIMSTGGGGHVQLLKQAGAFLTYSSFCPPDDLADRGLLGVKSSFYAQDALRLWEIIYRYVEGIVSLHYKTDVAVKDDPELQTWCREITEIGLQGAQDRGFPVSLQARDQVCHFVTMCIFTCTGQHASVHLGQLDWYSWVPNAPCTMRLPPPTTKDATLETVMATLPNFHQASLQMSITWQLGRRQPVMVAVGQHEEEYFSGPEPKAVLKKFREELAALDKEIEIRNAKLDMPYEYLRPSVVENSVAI
Method: as §1, §2

[4] = read-out: IC50 (μM) values for in vitro lipoxygenase inhibition, 12-LOX
[5] = read-out: IC50 (μM) values for in vitro lipoxygenase inhibition, 15-LOX
[6] = IC50 (μM) values for in vitro lipoxygenase inhibition, 15-LOX

**Q.** Which results are given for `CN(C)CCOc1cc2c(cc1CNc1ccccc1)[nH]c1ccccc12` [SS20308-0119-01, N-((3-(2-(dimethylamino)ethoxy)-9H-carbazol-2-yl)methyl)aniline]?
**A.** IC50 [1, 4]: 0.83 µM; IC50 [2]: 1.04 µM; IC50 [3, 5]: 0.71 µM

**Q.** Which results are given for `COc1c2[nH]c(-c3ccccc3)nc2c(F)c2c1[nH]c1ccccc12` [SS20308-0137-01, 10-fluoro-4-methoxy-2-phenyl-3,5-dihydroimidazo[4,5-b]carbazole]?
**A.** IC50 [1, 4]: 0.53 µM; IC50 [2]: 0.72 µM; IC50 [3, 5]: 0.5 µM

**Q.** What does the source list for `c1ccc2c(c1)[nH]c1cc3c(ccn3CCn3cncn3)cc12` [SS20308-0062-01, 1-(2-(1H-1,2,4-triazol-1-yl)ethyl)-1,9-dihydropyrrolo[2,3-b]carbazole]?
**A.** IC50 [1, 4]: 0.19 µM and 0.24 µM; IC50 [2]: 0.53 µM and 0.42 µM; IC50 [3, 5]: 0.94 µM and 1.68 µM

**Q.** For `c1ccc2c(c1)[nH]c1c(OCCn3cncn3)c3c(cc12)[nH]c1ccccc13` [SS20308-0059-01, 6-(2-(1H-1,2,4-triazol-1-yl)ethoxy)-5,11-dihydroindolo[3,2-b]carbazole], which IC50 ([1]; IC50 (μM) values for in vitro lipoxygenase inhibition, 12-LOX) is on record?
**A.** 0.03 µM and 0.02 µM

**Q.** What about the IC50 [2] of the same molecule?
**A.** 0.04 µM and 0.03 µM

**Q.** And the IC50 [3, 6]?
**A.** 0.03 µM and 0.02 µM

**Q.** Which IC50 [1, 4] does the source give for `COc1ccc2c([nH]c3ccc(F)cc32)c1CCCN(C)C` [SS20308-0118-01, 3-(6-fluoro-2-methoxy-9H-carbazol-1-yl)-N,N-dimethylpropan-1-amine] here?
**A.** 24.2 µM

**Q.** What about the IC50 [2] of the same molecule?
**A.** 23.2 µM

**Q.** What about the IC50 [3, 6] of the same molecule?
**A.** 26.9 µM

**Q.** What does the source list for `CN(C)CCCNc1ccc2c(c1)Nc1ccccc1CC2` [SS20308-0270-01, N^1-(10,11-dihydro-5H-dibenzo[b,f]azepin-3-yl)-N^3,N^3-dimethylpropane-1,3-diamine]?
**A.** IC50 [1, 4]: 0.1 µM; IC50 [2]: 0.15 µM; IC50 [3, 5]: 1.08 µM and 0.9 µM

**Q.** With `CN(C)CCOc1cccc2c1-c1[nH]c3ccccc3c1CS2` [SS20308-0046-01, 2-(6,11-dihydrothiochromeno[4,3-b]indol-1-yloxy)-N,N-dimethylethanamine] as the molecule, how does the IC50 [1, 4] read?
**A.** 0.62 µM

**Q.** And the IC50 [2]?
**A.** 0.63 µM

**Q.** What about the IC50 [3, 5] of the same molecule?
**A.** 0.97 µM

**Q.** For `CN(C)CCOc1c2[nH]c3ccccc3c2cc2[nH]c3ccccc3c12` [SS20308-0065-01, 2-(5,11-dihydroindolo[3,2-b]carbazol-6-yloxy)-N,N-dimethylethanamine], which IC50 [1, 4] is on record?
**A.** 0.02 µM and 0.06 µM

**Q.** And the IC50 [2]?
**A.** 0.01 µM and 0.04 µM

**Q.** And the IC50 [3, 5]?
**A.** 0.03 µM

**Q.** For `CN(C)CCOc1c(-c2ccccc2N)ccc2c1[nH]c1ccccc12` [SS20308-0073-01, 2-(1-(2-(dimethylamino)ethoxy)-9H-carbazol-2-yl)aniline dihydrochloride], which IC50 [1, 4] is on record?
**A.** 49.2 µM

**Q.** What about the IC50 [2] of the same molecule?
**A.** 14.4 µM

**Q.** And the IC50 [3, 6]?
**A.** 26.1 µM

**Q.** Which IC50 [1, 4] does the source give for `c1ccc2c(c1)CCc1ccc(NCCCN3CCOCC3)cc1N2` [SS20308-0303-01, N-(3-morpholinopropyl)-10,11-dihydro-5H-dibenzo[b,f]azepin-3-amine] here?
**A.** 0.09 µM

**Q.** What about the IC50 [2] of the same molecule?
**A.** 0.12 µM

**Q.** What about the IC50 [3, 5] of the same molecule?
**A.** 0.9 µM

**Q.** `CN(CCn1cncn1)c1cc2c(cc1-c1ccccc1)[nH]c1ccc(F)cc12` [SS20308-0182-01, N-(2-(1H-1,2,4-triazol-1-yl)ethyl)-6-fluoro-N-methyl-2-phenyl-9H-carbazol-3-amine] was tested. Which IC50 [1, 4] did it give?
**A.** 0.31 µM

**Q.** What about the IC50 [2] of the same molecule?
**A.** 0.77 µM

**Q.** And the IC50 [3, 6]?
**A.** 1.4 µM

**Q.** Which results are given for `Fc1ccc2[nH]c3cc4c(c(F)c3c2c1)CCN4CCn1cncn1` [SS20308-0207-01, 1-(2-(1H-1,2,4-triazol-1-yl)ethyl)-4,6-difluoro-1,2,3,9-tetrahydropyrrolo[2,3-b]carbazole]?
**A.** IC50 [1, 4]: 0.1 µM; IC50 [2]: 0.59 µM; IC50 [3, 5]: 1.15 µM

**Q.** How did the IC50 [1, 4] turn out when `c1ccc2c(c1)CCc1cc(C3CC3)c(NCCn3cncn3)cc1N2` [SS20308-0269-01, N-(2-(1H-1,2,4-triazol-1-yl)ethyl)-2-cyclopropyl-10,11-dihydro-5H-dibenzo[b,f]azepin-3-amine] was run?
**A.** 0.11 µM

**Q.** What about the IC50 [2] of the same molecule?
**A.** 0.55 µM

**Q.** What about the IC50 [3, 5] of the same molecule?
**A.** 0.55 µM

**Q.** For `CN(C)CCOc1ccc(Cl)c2c1-c1[nH]c3ccc(F)cc3c1CS2` [SS20308-0093-01, 2-(4-chloro-8-fluoro-6,11-dihydrothiochromeno[4,3-b]indol-1-yloxy)-N,N-dimethylethanamine], which IC50 [1, 4] is on record?
**A.** 1.69 µM

**Q.** What about the IC50 [2] of the same molecule?
**A.** 1.46 µM

**Q.** And the IC50 [3, 5]?
**A.** 2.37 µM

**Q.** For `CN(C)CCOc1cc(Oc2ccccc2)cc2c1[nH]c1ccc(F)cc12` [SS20308-0054-01], which IC50 [1, 4] is on record?
**A.** 7.6 µM

**Q.** What about the IC50 [2] of the same molecule?
**A.** 6.83 µM

**Q.** What about the IC50 [3, 5] of the same molecule?
**A.** 1.82 µM
